The text below walks through data of patent publication US9108944B2, “Androgen receptor modulators and uses thereof” (ARAGON PHARMACEUTICALS, INC., priority 2010, dated 2015).

Some results are limits rather than exact numbers.

Assay [1] addresses T1, AR-VP16 (Homo sapiens, UniProt P10275).
T1 sequence (P10275 560-920 limits assumed): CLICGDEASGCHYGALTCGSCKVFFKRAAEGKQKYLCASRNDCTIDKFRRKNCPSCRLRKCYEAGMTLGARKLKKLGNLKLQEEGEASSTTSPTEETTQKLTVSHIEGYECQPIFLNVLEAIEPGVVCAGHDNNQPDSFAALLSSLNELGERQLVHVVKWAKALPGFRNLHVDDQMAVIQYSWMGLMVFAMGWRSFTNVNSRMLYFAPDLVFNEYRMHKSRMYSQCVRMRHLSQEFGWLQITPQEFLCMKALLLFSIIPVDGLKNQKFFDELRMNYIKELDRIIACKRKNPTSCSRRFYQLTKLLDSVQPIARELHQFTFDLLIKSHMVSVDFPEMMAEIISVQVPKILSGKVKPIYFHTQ
Put plainly: AR-VP16 DNA Binding Assay, agonist mode (HepG2 cells). It counts as cell-based. Conditions: Emax >20x DMSO control = agonist.

The target in assay [2] is T1, AR-VP16. Put plainly: AR-VP16 DNA Binding Assay, antagonist mode (HepG2 cells, 0.1 nM R1881). The assay is classed as cell-based. In outline: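 Transfected HepG2 cells expressing AR-VP16 received serially diluted compound in charcoal-stripped-serum RPMI the day after transfection, with 0.1 nM R1881 (final) added only for antagonist testing. After 48 h, cells were lysed for measurement.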

Take `Cc1cc(N2C(=O)C3(CCC3)N(c3ccc(C(=O)Nc4ccccc4F)c(F)c3)C2=S)cnc1C#N` [Compound 297, 4-(7-(6-Cyano-5-methylpyridin-3-yl)-8-oxo-6-thioxo-5,7-diazaspiro[3.4]octan-5-yl)-2-fluoro-N-(2-fluorophenyl)benzamide]: the “ARVP16 DNA Binding Assay (Agonist mode): Agonist?” value (“ARVP16 DNA Binding Assay” for short) on AR-VP16 [1] is “No (Agonist defined as a compound whose Emax in the ARVP16 DNA Binding Assay (Agonist mode) is >20x DMSO control)”. The IC50 at AR-VP16 [2] is less than 1000 nM.

Turning to `N#Cc1ncc(N2C(=O)C3(CCC3)N(c3ccc(F)c(C(=O)NCCc4ccccn4)c3)C2=S)cc1C(F)(F)F` [Compound 239, 5-(7-(6-Cyano-5-(trifluoromethyl)pyridin-3-yl)-8-oxo-6-thioxo-5,7-diazaspiro[3.4]octan-5-yl)-2-fluoro-N-(2-(pyridin-2-yl)ethyl)benzamide], the “ARVP16 DNA Binding Assay” value on AR-VP16 [1] was “No (Agonist defined as a compound whose Emax in the ARVP16 DNA Binding Assay (Agonist mode) is >20x DMSO control)”. The compound also gave an IC50 at AR-VP16 [2] of more than 1000 nM.

Take `Cc1ccc(N2C(=S)N(c3cnc(C#N)c(C)c3)C(=O)C23CCC3)cc1` [Compound 31, 3-Methyl-5-(8-oxo-6-thioxo-5-(p-tolyl)-5,7-diazpiro[3.4]octan-7-yl)picolinonitrile]: on AR-VP16 [1], the “ARVP16 DNA Binding Assay” value is given as “No (Agonist defined as a compound whose Emax in the ARVP16 DNA Binding Assay (Agonist mode) is >20x DMSO control)”. The IC50 on AR-VP16 [2] is less than 1000 nM.

With `N#Cc1ncc(N2C(=O)C3(CCC3)N(c3ccc(OCCCc4ccccc4)c(F)c3)C2=S)cc1C(F)(F)F` [Compound 138, 5-(5-(3-Fluoro-4-(3-phenylpropoxy)phenyl)-8-oxo-6-thioxo-5,7-diazaspiro[3.4]octan-7-yl)-3-(trifluoromethyl)picolinonitrile], the “ARVP16 DNA Binding Assay” value on AR-VP16 [1] was “No (Agonist defined as a compound whose Emax in the ARVP16 DNA Binding Assay (Agonist mode) is >20x DMSO control)”. On AR-VP16 [2], this compound yielded an IC50 of more than 1000 nM.

Regarding `N#Cc1ncc(N2C(=O)C3(CCC3)N(c3ccc(OCCN4CCOCC4)c(F)c3)C2=S)cc1C(F)(F)F` [Compound 143, 5-(5-(3-Fluoro-4-(2-morpholinoethoxy)phenyl)-8-oxo-6-thioxo-5,7-diazaspiro[3.4]octan-7-yl)-3-(trifluoromethyl)picolinonitrile], the “ARVP16 DNA Binding Assay” value on AR-VP16 [1] was “Yes (Agonist defined as a compound whose Emax in the ARVP16 DNA Binding Assay (Agonist mode) is >20x DMSO control)”. At AR-VP16 [2], the half-maximal inhibitory concentration (IC50) was less than 1000 nM.

Turning to `Cc1cc(N2C(=O)C3(CCC3)N(c3ccc(C(=O)O)c(F)c3)C2=S)cnc1C#N` [Compound 225, 4-(7-(6-Cyano-5-methylpyridin-3-yl)-8-oxo-6-thioxo-5,7-diazaspiro[3.4]octan-5-yl)-2-fluorobenzoic acid], the “ARVP16 DNA Binding Assay” value on AR-VP16 [1] is recorded as “No (Agonist defined as a compound whose Emax in the ARVP16 DNA Binding Assay (Agonist mode) is >20x DMSO control)”. Moreover, the IC50 on AR-VP16 [2] is less than 1000 nM.

Take `N#Cc1ncc(N2C(=O)C3(CCC3)N(c3ccc(F)cc3F)C2=S)cc1C(F)(F)F` [Compound 76, 5-(5-(2,4-Difluorophenyl)-8-oxo-6-thioxo-5,7-diazaspiro[3.4]octan-7-yl)-3-(trifluoromethyl)picolinonitrile]: the “ARVP16 DNA Binding Assay” value on AR-VP16 [1] is given as “Yes (Agonist defined as a compound whose Emax in the ARVP16 DNA Binding Assay (Agonist mode) is >20x DMSO control)”. Besides, the IC50 on AR-VP16 [2] was less than 1000 nM.

As for `Cc1cc(N2C(=O)C3(CCC3)N(c3ccc(-c4cncc(F)c4)cc3)C2=S)cnc1C#N` [Compound 105, 5-(5-(4-(5-Fluoropyridin-3-yl)phenyl)-8-oxo-6-thioxo-5,7-diazaspiro[3.4]octan-7-yl)-3-methylpicolinonitrile], at AR-VP16 [1], the “ARVP16 DNA Binding Assay” value is reported as “No (Agonist defined as a compound whose Emax in the ARVP16 DNA Binding Assay (Agonist mode) is >20x DMSO control)”. The same compound yielded a half-inhibitory concentration (IC50) at AR-VP16 [2] of less than 1000 nM.

For `Cc1cc(N2C(=O)C3(CCC3)N(c3ccc(OCCO)cc3)C2=S)cnc1C#N` [Compound 223, 5-(5-(4-(2-Hydroxyethoxy)phenyl)-8-oxo-6-thioxo-5,7-diazaspiro[3.4]octan-7-yl)-3-methylpicolinonitrile], at AR-VP16 [1], the “ARVP16 DNA Binding Assay” value is “No (Agonist defined as a compound whose Emax in the ARVP16 DNA Binding Assay (Agonist mode) is >20x DMSO control)”. At AR-VP16 [2], this compound showed an IC50 of less than 1000 nM.

With `N#Cc1ncc(N2C(=O)C3(CCC3)N(c3ccc(F)c(OCCCN4CCOCC4)c3)C2=S)cc1C(F)(F)F` [Compound 165, 5-(5-(4-Fluoro-3-(3-morpholinopropoxy)phenyl)-8-oxo-6-thioxo-5,7-diazaspiro[3.4]octan-7-yl)-3-(trifluoromethyl)picolinonitrile], at AR-VP16 [1], the “ARVP16 DNA Binding Assay” value was “No (Agonist defined as a compound whose Emax in the ARVP16 DNA Binding Assay (Agonist mode) is >20x DMSO control)”. This compound also showed a 50% inhibitory concentration (IC50) at AR-VP16 [2] of more than 1000 nM.

Take `N#Cc1ncc(N2C(=O)C3(CCC3)N(c3ccc(OCCC4CCOCC4)c(F)c3)C2=S)cc1C(F)(F)F` [Compound 180, 5-(5-(3-Fluoro-4-(2-(tetrahydro-2H-pyran-4-yl)ethoxy)phenyl)-8-oxo-6-thioxo-5,7-diazaspiro[3.4]octan-7-yl)-3-(trifluoromethyl)picolinonitrile]: on AR-VP16 [1], the “ARVP16 DNA Binding Assay” value was “Yes (Agonist defined as a compound whose Emax in the ARVP16 DNA Binding Assay (Agonist mode) is >20x DMSO control)”. The same compound showed an IC50 on AR-VP16 [2] of less than 1000 nM.

Consider `COc1cc(N2C(=O)C3(CCC3)N(c3ccc(C)cc3)C2=S)cnc1C#N` [Compound 59, 3-Methoxy-5-(8-oxo-6-thioxo-5-(p-tolyl)-5,7-diazaspiro[3.4]octan-7-yl)picolinonitrile], for which the “ARVP16 DNA Binding Assay” value at AR-VP16 [1] is “No (Agonist defined as a compound whose Emax in the ARVP16 DNA Binding Assay (Agonist mode) is >20x DMSO control)”. At AR-VP16 [2], this compound came in with an IC50 of less than 1000 nM.

For `CCOC(=O)COc1ccc(N2C(=S)N(c3cnc(C#N)c(C(F)(F)F)c3)C(=O)C23CCC3)cc1F` [Compound 132, Ethyl 2-(4-(7-(6-cyano-5-(trifluoromethyl)pyridin-3-yl)-8-oxo-6-thioxo-5,7-diazaspiro[3.4]octan-5-yl)-2-fluorophenoxy)acetate], the “ARVP16 DNA Binding Assay” value at AR-VP16 [1] is reported as “No (Agonist defined as a compound whose Emax in the ARVP16 DNA Binding Assay (Agonist mode) is >20x DMSO control)”. The same compound registered an IC50 on AR-VP16 [2] of more than 1000 nM.

Regarding `COc1cc(N2C(=S)N(c3cnc(C#N)c(C(F)(F)F)c3)C(=O)C23CCC3)ccc1F` [Compound 32, 5-(5-(4-fluoro-3-methoxyphenyl)-8-oxo-6-thioxo-5,7-diazaspiro[3.4]octan-7-yl)-3-(trifluoromethyl)picolinonitrile], at AR-VP16 [1], the “ARVP16 DNA Binding Assay” value was “No (Agonist defined as a compound whose Emax in the ARVP16 DNA Binding Assay (Agonist mode) is >20x DMSO control)”. The compound also gave an IC50 at AR-VP16 [2] of less than 1000 nM.

On to `CN1CCC(NC(=O)c2ccc(N3C(=S)N(c4cnc(C#N)c(C(F)(F)F)c4)C(=O)C34CCC4)cc2F)CC1` [Compound 276, 4-(7-(6-Cyano-5-(trifluoromethyl)pyridin-3-yl)-8-oxo-6-thioxo-5,7-diazaspiro[3.4]octan-5-yl)-2-fluoro-N-(1-methylpiperidin-4-yl)benzamide], for which the “ARVP16 DNA Binding Assay” value on AR-VP16 [1] is recorded as “No (Agonist defined as a compound whose Emax in the ARVP16 DNA Binding Assay (Agonist mode) is >20x DMSO control)”. Besides, the half-maximal inhibitory concentration (IC50) at AR-VP16 [2] was more than 1000 nM.

`N#Cc1ncc(N2C(=O)C3(CCC3)N(c3ccc(OC4CCNCC4)cc3)C2=S)cc1C(F)(F)F` [Compound 211, 5-(8-Oxo-5-(4-(piperidin-4-yloxy)phenyl)-6-thioxo-5,7-diazaspiro[3.4]octan-7-yl)-3-(trifluoromethyl)picolinonitrile]: on AR-VP16 [1], the “ARVP16 DNA Binding Assay” value is given as “No (Agonist defined as a compound whose Emax in the ARVP16 DNA Binding Assay (Agonist mode) is >20x DMSO control)”. The compound further yielded a 50% inhibitory concentration (IC50) at AR-VP16 [2] of less than 1000 nM.

As to `N#Cc1ncc(N2C(=O)C3(CCC3)N(c3ccc(OCCc4ncccn4)c(F)c3)C2=S)cc1C(F)(F)F` [Compound 189, 5-(5-(3-Fluoro-4-(2-(pyrimidin-2-yl)ethoxy)phenyl)-8-oxo-6-thioxo-5,7-diazaspiro[3.4]octan-7-yl)-3-(trifluoromethyl)picolinonitrile], the “ARVP16 DNA Binding Assay” value at AR-VP16 [1] is reported as “No (Agonist defined as a compound whose Emax in the ARVP16 DNA Binding Assay (Agonist mode) is >20x DMSO control)”. On AR-VP16 [2], this compound yielded a 50% inhibitory concentration (IC50) of less than 1000 nM.

Take `Cc1cc(N2C(=O)C3(CCC3)N(c3ccc(C(=O)Nc4ccccc4Cl)c(F)c3)C2=S)cnc1C#N` [Compound 294, N-(2-Chlorophenyl)-4-(7-(6-cyano-5-methylpyridin-3-yl)-8-oxo-6-thioxo-5,7-diazaspiro[3.4]octan-5-yl)-2-fluorobenzamide]: at AR-VP16 [1], the “ARVP16 DNA Binding Assay” value is on record as “No (Agonist defined as a compound whose Emax in the ARVP16 DNA Binding Assay (Agonist mode) is >20x DMSO control)”. Also, the IC50 on AR-VP16 [2] was less than 1000 nM.

As for `N#Cc1ncc(N2C(=O)C3(CCC3)N(c3ccc(F)c(OCCc4ccccc4)c3)C2=S)cc1C(F)(F)F` [Compound 162, 5-(5-(4-Fluoro-3-phenethoxyphenyl)-8-oxo-6-thioxo-5,7-diazaspiro[3.4]octan-7-yl)-3-(trifluoromethyl)picolinonitrile], on AR-VP16 [1], the “ARVP16 DNA Binding Assay” value is on record as “No (Agonist defined as a compound whose Emax in the ARVP16 DNA Binding Assay (Agonist mode) is >20x DMSO control)”. Further, at AR-VP16 [2], the IC50 was more than 1000 nM.
